The nature of data set [1]: HLM stability (Low Activity, Alternative Method). Format: in vitro ADME. The following applies: both sexes, human, liver microsomes, pH 7.4, Condition 1 column, values marked *: Low Activity, 0.50 mg protein/mL. The procedure: (§1) HLM Stability (Low Activity, Alternative Method). Pooled HLM from adult male and female donors (Corning 452117) were used. Microsomal incubations were carried out in multi-well plates. Liver microsomal incubation medium consisted of PBS (100 mM, pH 7.4), MgCl2 (1 mM), and NADPH (1 mM), with 0.50 mg of liver microsomal protein per mL. Control incubations were performed by replacing the NADPH-cofactor system with PBS. Test compounds (1 μM, final solvent concentration 1.0%) were incubated with microsomes at 37° C. with constant shaking. Six time points over 60 minutes were analyzed, with 60 μL aliquots of the reaction mixture being drawn at each time point. The reaction aliquots were stopped by adding 180 μL of cold (4° C.) acetonitrile containing 200 ng/mL tolbutamide and 200 ng/mL labetalol as internal standards (IS), followed by shaking for 10 minutes, and then protein sedimentation by centrifugation at 4000 rpm for 20 minutes at 4° C. Supernatant samples (80 μL) were diluted with water (240 μL) and analyzed for parent compound remaining using a fit-for-purpose liquid chromatography-tandem mass spectrometry (LC-MS/MS) method.
(§2) Data Analysis. The elimination constant (kel), half-life (t1/2) and intrinsic clearance (Clint) were determined in a plot of […] versus time, using linear regression analysis.
(Microsomes from liver hold many membrane-bound enzymes, among them those of drug oxidation.)

Data set [2] concerns the target T1, vesicular monoamine transporter 2 (VMAT2) (Homo sapiens, UniProt Q05940).
T1 construct: expressed in transfected cells
The data set is described as follows: Fluorescent substrate uptake inhibition, VMAT2. Format: cell-based. The following applies: 10 μM, transfected cells. On the procedure:
(§3) Uptake Inhibition. The ability of test compounds to block monoamine uptake by SERT, NET, DAT, and VMAT2 was determined using the Neurotransmitter Transporter Uptake Assay Kit manufactured by Molecular Devices (Cat #R8173). Briefly, stably transfected cells expressing the MAT of interest (HEK293 cells for SERT and NET; CHO cells for DAT) were grown and plated into 384-well plates at a concentration of 20,000 cells per well. Plates were then incubated for 16-20 h at 37° C. and 5% CO2. The medium was then aspirated and replaced with 25 μL of assay buffer (20 mM HEPES in HBSS, containing 0.1% BSA) containing the test compounds at the appropriate concentrations. Plates were then centrifuged at 300 rpm for 15 s and then incubated at 37° C. for 30 minutes. At this time, 25 μL of the proprietary fluorescent dye solution was added, the plates were incubated at 37° C. for 60 minutes, and then fluorescence was quantified on a plate reader (excitation wavelength=440 nm, emission wavelength=520 nm). The proprietary dye solution contains a mixture of 1) a fluorescent dye that mimics the endogenous substrates of MATs and is thereby actively transported to the intracellular compartment in the absence of an inhibitor and 2) a masking dye that inhibits the fluorescence of dye 1 in the extracellular compartment. Therefore, the overall fluorescence of the system increases as the fluorescent dye is transported into the cells.

The nature of data set [3]: MLM stability (Low Activity). Format: in vitro ADME, CD-1 mice. The following applies: male, CD-1, mouse, liver microsomes, pH 7.4, Condition 1 (Low Activity), 0.50 mg protein/mL. The procedure: as §1, with “MLM” for “HLM”, “Activity).” for “Activity, Alternative Method).”, “from” for “from adult”, “CD-1 mice (XenoTech M1000)” for “and female donors (Corning 452117)”
as §2

Data set [4] addresses T2, norepinephrine transporter (NET) (Homo sapiens, UniProt P23975).
T2 construct: expressed in transfected cells; host or cells: HEK293
Put plainly: Fluorescent substrate uptake inhibition, NET. Format: cell-based. The following applies: 10 μM, HEK293 cells expressing NET. The procedure:
as §3

Data set [5] in a line: RLM stability (Low Activity). Format: in vitro ADME, Sprague Dawley rats. The following applies: male, Sprague Dawley, rat, liver microsomes, pH 7.4, Condition 1 (Low Activity), 0.50 mg protein/mL. On the procedure: as §1, with “RLM” for “HLM”, “Activity).” for “Activity, Alternative Method).”, “from” for “from adult”, “Sprague Dawley rats (XenoTech R1000)” for “and female donors (Corning 452117)”
as §2

Data set [6] concerns the target T3, dopamine transporter (DAT) (Homo sapiens, UniProt Q01959).
T3 construct: expressed in transfected cells; host or cells: CHO (uptake)
Put plainly: Fluorescent substrate uptake inhibition, DAT. Format: cell-based. The following applies: 10 μM, CHO cells expressing DAT. On the procedure:
as §3

Data set [7] has as its target MK-801 binding site of the N-methyl-D-aspartate receptor (NMDAR). The data set is described as follows: NMDAR radioligand binding with [3H]MK-801, Method B. The following applies: MK-801 site, Method B, male Sprague Dawley rat cortex, 5.0 nM [3H]MK-801; read-out: NMDAR Ki ± SEM. On the set-up: species or system Sprague Dawley rat. On the procedure: Radioligand Binding—Method B. Affinity of the test compounds for NMDAR was determined in radioligand binding experiments with [^3H]MK-801 by WuXi AppTec (Hong Kong) Limited, under the conditions described in Table 13.

For data set [8], the target named is T4, serotonin transporter (SERT) (Homo sapiens, UniProt P31645).
T4 construct: expressed in transfected cells; host or cells: HEK293
T4 sequence (P31645 whole entry, species assumed): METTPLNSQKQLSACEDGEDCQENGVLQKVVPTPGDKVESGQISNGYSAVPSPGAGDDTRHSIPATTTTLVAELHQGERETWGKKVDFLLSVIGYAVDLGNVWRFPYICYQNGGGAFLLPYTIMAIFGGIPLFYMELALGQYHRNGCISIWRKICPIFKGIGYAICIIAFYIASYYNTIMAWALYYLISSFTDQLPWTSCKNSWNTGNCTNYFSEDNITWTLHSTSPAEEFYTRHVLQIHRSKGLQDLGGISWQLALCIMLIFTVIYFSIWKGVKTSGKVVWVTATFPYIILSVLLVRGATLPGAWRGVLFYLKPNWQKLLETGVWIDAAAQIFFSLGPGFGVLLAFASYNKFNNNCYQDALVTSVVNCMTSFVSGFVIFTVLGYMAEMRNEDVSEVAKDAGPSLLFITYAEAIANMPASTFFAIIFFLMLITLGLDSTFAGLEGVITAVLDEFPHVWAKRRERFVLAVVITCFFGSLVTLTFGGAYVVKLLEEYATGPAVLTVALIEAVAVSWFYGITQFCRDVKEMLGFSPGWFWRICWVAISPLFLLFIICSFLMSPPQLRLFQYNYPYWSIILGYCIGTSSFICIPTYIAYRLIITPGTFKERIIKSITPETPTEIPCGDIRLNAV
Put plainly: Fluorescent substrate uptake inhibition, SERT. Format: cell-based. The following applies: 10 μM, HEK293 cells expressing SERT. The procedure:
as §3

Data set [9] in a line: HLM stability (High Activity). Format: in vitro ADME. The following applies: both sexes, human, liver microsomes, pH 7.4, Condition 2 (High Activity), 1.0 mg protein/mL. On the procedure:
(§4) HLM Stability (High Activity). Pooled HLM from adult male and female donors (XenoTech H0630) were used. Microsomal incubations were carried out in 96-well plates in 5 aliquots of 40 μL, each (one for each time point). Liver microsomal incubation medium consisted of PBS (100 mM, pH 7.4), MgCl2 (3.3 mM), NADPH (3 mM), glucose-6-phosphate (5.3 mM), and glucose-6-phosphate dehydrogenase (0.67 units/mL), with 1.0 mg of liver microsomal protein per mL. Control incubations were performed by replacing the NADPH-cofactor system with PBS. Test compounds (1 μM, final solvent concentration 1.6%) were incubated with microsomes at 37° C., shaking at 100 rpm. Incubations were performed in duplicate. Five time points over 60 minutes were analyzed. The reactions were stopped by adding 12 volumes of 90% acetonitrile-water to incubation aliquots, followed by protein sedimentation by centrifugation at 5500 rpm for 3 minutes. Supernatants were analyzed for parent compound remaining using a fit-for-purpose liquid chromatography-tandem mass spectrometry (LC-MS/MS) method, with authentic samples of each analyte used for identity confirmation.
as §2

The nature of data set [10]: MLM stability (High Activity). Format: in vitro ADME, BALB/c mice. The following applies: male, BALB/c, mouse, liver microsomes, pH 7.4, Condition 2 (High Activity), 1.0 mg protein/mL. On the procedure:
as §4, with “MLM” for “HLM”, “from” for “from adult”, “BALB/c mice” for “and female donors”, “M3000)” for “H0630)”, “μL” for “μL,”, “9” for “12”
as §2

T1 sequence (Q05940 whole entry, species assumed): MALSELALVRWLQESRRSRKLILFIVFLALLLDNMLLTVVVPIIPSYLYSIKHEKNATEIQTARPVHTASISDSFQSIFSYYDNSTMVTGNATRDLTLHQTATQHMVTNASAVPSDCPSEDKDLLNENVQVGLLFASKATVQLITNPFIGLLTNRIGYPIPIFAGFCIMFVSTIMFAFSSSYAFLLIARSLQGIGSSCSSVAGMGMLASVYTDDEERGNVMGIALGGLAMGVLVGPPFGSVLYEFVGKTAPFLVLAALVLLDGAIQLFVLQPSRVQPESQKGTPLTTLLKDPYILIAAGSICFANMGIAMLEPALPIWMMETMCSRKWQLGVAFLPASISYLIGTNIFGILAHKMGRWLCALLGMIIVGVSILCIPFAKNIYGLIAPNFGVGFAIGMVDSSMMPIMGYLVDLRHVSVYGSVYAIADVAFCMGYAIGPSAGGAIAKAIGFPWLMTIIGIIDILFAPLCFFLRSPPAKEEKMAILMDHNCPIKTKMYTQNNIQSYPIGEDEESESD
T2 sequence (P23975 whole entry, species assumed): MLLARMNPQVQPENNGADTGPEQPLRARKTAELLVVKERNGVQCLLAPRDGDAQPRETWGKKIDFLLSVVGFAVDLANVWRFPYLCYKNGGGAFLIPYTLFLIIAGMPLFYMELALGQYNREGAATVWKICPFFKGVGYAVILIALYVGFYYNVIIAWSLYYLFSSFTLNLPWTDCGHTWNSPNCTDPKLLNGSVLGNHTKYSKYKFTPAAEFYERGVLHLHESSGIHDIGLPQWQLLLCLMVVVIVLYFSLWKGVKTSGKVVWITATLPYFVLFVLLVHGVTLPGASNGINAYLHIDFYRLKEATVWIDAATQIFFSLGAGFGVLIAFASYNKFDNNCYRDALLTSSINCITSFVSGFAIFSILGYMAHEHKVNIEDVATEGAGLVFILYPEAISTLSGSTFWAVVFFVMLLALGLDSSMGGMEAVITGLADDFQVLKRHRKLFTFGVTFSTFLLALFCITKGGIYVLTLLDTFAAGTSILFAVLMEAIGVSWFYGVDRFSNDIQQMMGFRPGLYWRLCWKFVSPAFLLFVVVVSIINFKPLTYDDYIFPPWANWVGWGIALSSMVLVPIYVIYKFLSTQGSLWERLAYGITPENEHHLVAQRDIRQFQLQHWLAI
T3 sequence (Q01959 whole entry, species assumed): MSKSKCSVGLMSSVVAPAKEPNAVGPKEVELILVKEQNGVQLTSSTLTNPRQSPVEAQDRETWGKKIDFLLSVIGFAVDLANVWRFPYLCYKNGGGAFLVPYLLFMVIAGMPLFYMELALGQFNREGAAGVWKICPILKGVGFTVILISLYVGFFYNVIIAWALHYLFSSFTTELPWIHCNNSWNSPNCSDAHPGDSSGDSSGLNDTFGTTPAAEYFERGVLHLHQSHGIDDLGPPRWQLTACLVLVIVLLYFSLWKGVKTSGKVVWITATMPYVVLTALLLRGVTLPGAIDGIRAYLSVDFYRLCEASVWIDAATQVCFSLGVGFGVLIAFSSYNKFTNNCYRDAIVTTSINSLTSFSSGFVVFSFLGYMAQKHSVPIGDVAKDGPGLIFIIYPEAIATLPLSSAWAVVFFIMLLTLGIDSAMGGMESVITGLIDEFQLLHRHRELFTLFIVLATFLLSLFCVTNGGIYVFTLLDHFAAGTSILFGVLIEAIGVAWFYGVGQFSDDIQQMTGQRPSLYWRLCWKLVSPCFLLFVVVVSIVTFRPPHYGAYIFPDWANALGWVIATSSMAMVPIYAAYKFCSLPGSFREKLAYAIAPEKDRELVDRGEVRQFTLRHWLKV

Consider `O=C1CCCC[C@@]1(c1ccccc1)N1CCOCC1` [Compound 31S, (S)-2-morpholino-2-phenylcyclohexan-1-one], for which the half-life (in general, the time needed for the level to fall by half in the phase considered) at 1 μM in data set [1] was determined as 61 min; in data set [3] it was 10.8 min; in data set [5], 9.6 min. Further, the microsomal CLint (commonly a measure of how fast metabolising enzymes remove a compound, apart from limits set by blood flow) at 1 μM in data set [1] is 22.7 µL/min/mg; in [3], 128 µL/min/mg; in [5] it was 144 µL/min/mg. Further, the inhibition (as a rule, the drop in the measured response relative to a control, in per cent) at 10 µM in data set [2] was -5.5%; in data set [4], 1.6%; in [6] it was 16.9%; in data set [8], -7.9%. For the same molecule, the Ki (usually a dissociation constant, usually derived from enzyme kinetics or from competition with a known ligand) in data set [7] is > 23 µM.
For `CN[C@@]1(c2ccccc2C)CCCCC1=O` [Compound 38R, (R)-2-(methylamino)-2-(o-tolyl)cyclohexan-1-one], the inhibition at 10 µM was 2.9% in data set [2], 20.3% in [4], -2.2% in data set [6] and 41.5% in data set [8]. Further, the half-life at 1 μM in [9] came to 111 min; in [10] it was 30 min. In addition, the microsomal CLint at 1 μM in [9] turned out to be 6 µL/min/mg; in data set [10] it was 23 µL/min/mg. In addition, the Ki in data set [7] worked out at 0.74 µM.
With `O=C1CCCC[C@@]1(NCCF)c1ccccc1` [Compound 86R, (R)-2-((2-fluoroethyl)amino)-2-phenylcyclohexan-1-one], the inhibition at 10 µM in [2] is -8.9%; in [4], 11.4%; in data set [6] it was 13.6%; in data set [8], 7.1%. The half-life at 1 μM in [9] was determined as 55.8 min; in data set [10], 6.2 min. Besides, the microsomal CLint at 1 μM in data set [9] worked out at 12 µL/min/mg; in data set [10] it was 113 µL/min/mg. Besides, the Ki in [7] came out at 7.1 µM.
For the molecule `O=C1CCCC[C@]1(NCCO)c1ccccc1` [Compound 30S, (S)-2-((2-hydroxyethyl)amino)-2-phenylcyclohexan-1-one], the inhibition at 10 µM in [2] is 23.2%; in [4] it was 22.3%; in data set [6], 18.7%; in [8], 51.9%. The half-life at 1 μM in data set [9] stood at 11.4 min; in data set [10], 4.3 min. The figures for the microsomal CLint at 1 μM in data set [9] and in data set [10] were 61 µL/min/mg and 162 µL/min/mg, respectively. Moreover, the Ki in [7] is 23 µM.
For `O=C1CCCC[C@@]1(NCCO)c1ccccc1` [Compound 30R, (R)-2-((2-hydroxyethyl)amino)-2-phenylcyclohexan-1-one], the inhibition at 10 µM came to 16.3% in [2], 3.5% in [4], 8.5% in [6] and 1.2% in data set [8]. Besides, the results for the half-life at 1 μM in data set [9] and in data set [10] were 23 min and 6.5 min, respectively. Moreover, the microsomal CLint at 1 μM in [9] was 30 µL/min/mg; in data set [10], 106 µL/min/mg. For the same molecule, the Ki in [7] was > 23 µM.
Take `O=C1CCCC[C@]1(NCCF)c1ccccc1` [Compound 86S, (S)-2-((2-fluoroethyl)amino)-2-phenylcyclohexan-1-one]: the inhibition at 10 µM in [2] was -5.5%; in data set [4], 12.2%; in data set [6] it was 20.8%; in [8] it was 14.1%. Also, the half-life at 1 μM came to 61.9 min in data set [9] and 8.5 min in data set [10]. Further, the microsomal CLint at 1 μM worked out at 11 µL/min/mg in [9] and 82 µL/min/mg in data set [10]. Moreover, the Ki in data set [7] came out at 1.3 µM.
Regarding `CN[C@]1(c2ccccc2C)CCCCC1=O` [Compound 38S, (S)-2-(methylamino)-2-(o-tolyl)cyclohexan-1-one], the inhibition at 10 µM in data set [2] was -11.2%; in data set [4], 2.7%; in data set [6], 8.3%; in data set [8] it was 39.7%. Further, the half-life at 1 μM was found to be 110 min in [9] and 22.4 min in [10]. Also, the microsomal CLint at 1 μM in data set [9] was 6 µL/min/mg; in [10], 31 µL/min/mg. The Ki in [7] amounted to 0.24 µM.

The values are drawn from patent publication US11344510B2, “Arylcyclohexylamine derivatives and their use in the treatment of psychiatric disorders” (Gilgamesh Pharmaceuticals, Inc., priority 2019, dated 2022).
